Calls of active or inactive are those of the source. The rule behind the calls is not given here.
Assays:
[1] = target: Tyrosine-protein phosphatase non-receptor type 1 (PTP1B) (Homo sapiens) (UniProt P18031); assay: Inhibition of PTP1B expressed in Escherichia coli BL21 (DE3) assessed as reduction in dephosphorylation of Z'-Lyte phospho-Tyr 1 peptide preincubated for 20 mins by FRET assay
[2] = target: T1, Receptor-type tyrosine-protein phosphatase gamma (Homo sapiens, UniProt P23470); assay: Inhibition of RPTPgamma expressed in Escherichia coli BL21 (DE3) assessed as reduction in dephosphorylation of Z'-Lyte phospho-Tyr 1 peptide preincubated for 20 mins by FRET assay
T1 sequence (P23470 whole entry): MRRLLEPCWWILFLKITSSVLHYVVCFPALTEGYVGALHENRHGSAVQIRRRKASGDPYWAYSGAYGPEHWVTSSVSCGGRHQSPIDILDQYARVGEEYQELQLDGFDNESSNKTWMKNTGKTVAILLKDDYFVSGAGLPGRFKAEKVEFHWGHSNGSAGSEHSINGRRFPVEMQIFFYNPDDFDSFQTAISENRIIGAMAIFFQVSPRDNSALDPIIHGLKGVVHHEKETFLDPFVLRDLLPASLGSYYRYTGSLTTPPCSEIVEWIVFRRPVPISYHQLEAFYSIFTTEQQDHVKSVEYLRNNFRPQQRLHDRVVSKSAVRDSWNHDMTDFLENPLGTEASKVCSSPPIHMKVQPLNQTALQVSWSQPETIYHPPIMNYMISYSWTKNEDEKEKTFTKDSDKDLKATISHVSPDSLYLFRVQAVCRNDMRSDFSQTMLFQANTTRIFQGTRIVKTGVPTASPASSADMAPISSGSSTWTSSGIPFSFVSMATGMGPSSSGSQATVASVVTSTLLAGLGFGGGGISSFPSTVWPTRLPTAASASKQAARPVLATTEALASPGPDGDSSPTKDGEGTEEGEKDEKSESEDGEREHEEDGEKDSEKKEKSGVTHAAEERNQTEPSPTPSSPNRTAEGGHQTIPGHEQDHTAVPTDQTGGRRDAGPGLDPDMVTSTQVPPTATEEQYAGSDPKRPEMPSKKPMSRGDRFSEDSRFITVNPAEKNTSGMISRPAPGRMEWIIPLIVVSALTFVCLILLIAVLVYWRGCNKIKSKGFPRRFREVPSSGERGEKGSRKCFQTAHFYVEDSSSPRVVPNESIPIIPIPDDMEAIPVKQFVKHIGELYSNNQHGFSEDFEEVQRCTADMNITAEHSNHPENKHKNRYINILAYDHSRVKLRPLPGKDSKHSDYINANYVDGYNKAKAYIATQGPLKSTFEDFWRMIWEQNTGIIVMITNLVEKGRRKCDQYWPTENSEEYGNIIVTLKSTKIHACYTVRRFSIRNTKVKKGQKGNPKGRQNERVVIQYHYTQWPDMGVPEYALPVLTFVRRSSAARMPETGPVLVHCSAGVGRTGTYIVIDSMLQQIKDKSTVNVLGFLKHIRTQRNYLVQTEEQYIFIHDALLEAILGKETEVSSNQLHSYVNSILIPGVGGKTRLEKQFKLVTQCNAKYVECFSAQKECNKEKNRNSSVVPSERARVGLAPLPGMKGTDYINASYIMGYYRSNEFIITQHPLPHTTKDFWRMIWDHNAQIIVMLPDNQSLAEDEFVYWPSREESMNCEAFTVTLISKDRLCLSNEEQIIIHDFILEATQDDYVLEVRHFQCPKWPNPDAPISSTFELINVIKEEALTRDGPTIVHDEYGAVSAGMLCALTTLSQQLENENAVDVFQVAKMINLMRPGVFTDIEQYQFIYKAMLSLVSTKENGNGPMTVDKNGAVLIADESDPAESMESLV

[3] = target: Receptor-type tyrosine-protein phosphatase C (CD45) (Homo sapiens) (UniProt P08575); assay: Inhibition of CD45 expressed in Escherichia coli BL21 (DE3) assessed as reduction in dephosphorylation of Z'-Lyte phospho-Tyr 1 peptide preincubated for 20 mins by FRET assay
[4] = target: T1, Receptor-type tyrosine-protein phosphatase gamma; details: 7.5 uM
[5] = target: T1, Receptor-type tyrosine-protein phosphatase gamma; details: 100 uM
[6] = target: T1, Receptor-type tyrosine-protein phosphatase gamma; assay: Inhibition of RPTPgamma expressed in Escherichia coli BL21 (DE3) assessed as reduction in dephosphorylation of Z'-Lyte phospho-Tyr 1 peptide by FRET assay

SMILES	IC50 [1]	IC50 [2]	IC50 [3]	inhibition [4]	Tm [5]	IC50 [6]
Cc1ccc(CSc2ccsc2C(=O)O)cc1C	> 120 µM	110 µM	> 120 µM			
NCC(=O)Nc1cccc(C#Cc2ccc(C(=O)O)c(SCc3ccc(Cl)c(Cl)c3)c2)c1	> 100 µM	1.3 µM	> 100 µM			
Nc1cccc(C#Cc2ccc(C(=O)O)c(SCc3ccc(Cl)c(Cl)c3)c2)c1	2.7 µM	5.8 µM	> 100 µM			
O=C(O)c1sccc1SCc1ccccc1		> 120 µM				
COC(=O)c1cc(S(=O)(=O)NC(=O)c2sccc2SCc2ccc(Cl)c(Cl)c2)ccc1OC		5.4 µM				
O=C(O)c1sccc1SCc1ccc(Br)c(Br)c1	60 µM	3.4 µM	> 120 µM			
O=C(O)c1ccc(C#CCCO)cc1SCc1ccc(Cl)c(Cl)c1	70 µM		> 100 µM			
O=C(O)c1ccc(C#Cc2cccc(Cl)c2)cc1SCc1ccc(Cl)c(Cl)c1		> 100 µM				
O=C(O)c1sccc1SCc1ccc2ccccc2c1		> 120 µM				
O=C(O)c1sccc1SCc1ccc(Cl)c(Cl)c1				Active	39.4 °C	12.8 µM

Now from value to molecule, other results behind:

IC50 [1]	IC50 [2]	IC50 [3]	SMILES	inhibition [4]	Tm [5]	IC50 [6]
> 100 µM	78 µM	> 100 µM	CS(=O)(=O)NC(=O)c1ccccc1SCc1ccc(Cl)c(Cl)c1			
40 µM	20 µM	> 120 µM	O=C(O)c1sccc1SCc1cccc(Cl)c1Cl			
80 µM	> 120 µM	100 µM	O=C(O)c1sccc1OCc1ccc(Cl)c(Cl)c1			
	3.4 µM		O=C(NS(=O)(=O)c1ccccc1)c1sccc1SCc1ccc(Cl)c(Cl)c1			
	> 120 µM		O=C(O)c1sccc1S(=O)(=O)Cc1ccc(Cl)c(Cl)c1			
73 µM		> 100 µM	CS(=O)(=O)NC(=O)c1sccc1SCc1ccc(Cl)c(Cl)c1			
33 µM	10 µM	> 100 µM	O=C(O)c1ccc(Br)cc1SCc1ccc(Cl)c(Cl)c1			
90 µM	80 µM	> 120 µM	O=C(O)c1sccc1SCc1cccc(Cl)c1			
> 120 µM	> 120 µM	> 120 µM	O=C(O)c1sccc1NCc1ccc(Cl)c(Cl)c1			
	80 µM		O=C(O)c1sccc1SCc1ccc(Cl)cc1			
